Results: the CheMixHub viscosity set

Assay: xn = mol fraction of the nth substance listed

ClCc1ccccc1 + COc1ccccc1
303.15 K, 101 kPa
Conditions	viscosity [mPa·s]
x2 = 0.1045	1.245
x2 = 0.1911	1.362
x2 = 0.304	1.438
x2 = 0.4094	1.466
x2 = 0.5182	1.45
x2 = 0.6162	1.394
x2 = 0.7196	1.3
x2 = 0.8053	1.192
x2 = 0.9137	1.061

COCCOCCOCCOC + CCOC(C)=O
viscosity [mPa·s], 101.3 kPa
Conditions	298.15 K	308.15 K	318.15 K
x1 = 0.0071	0.436	0.391	0.358
x1 = 0.0233	0.454	0.406	0.369
x1 = 0.0549	0.488	0.434	0.395
x1 = 0.0836	0.522	0.464	0.417
x1 = 0.1198	0.564	0.498	0.447
x1 = 0.1684	0.626	0.548	0.489
x1 = 0.2665	0.752	0.651	0.574
x1 = 0.3217	0.833	0.717	0.624
x1 = 0.3905	0.931	0.796	0.69
x1 = 0.4265	0.985	0.841	0.725
x1 = 0.4683	1.058	0.895	0.769
x1 = 0.522	1.141	0.963	0.823
x1 = 0.5558	1.196	1.002	0.856
x1 = 0.6015	1.267	1.058	0.903
x1 = 0.6458	1.34	1.119	0.949
x1 = 0.725	1.479	1.223	1.028
x1 = 0.741	1.504	1.244	1.045
x1 = 0.7798	1.572	1.297	1.085
x1 = 0.8318	1.616	1.366	1.139
x1 = 0.8823	1.754	1.433	1.194
x1 = 0.9348	1.846	1.51	1.247
x1 = 0.9606	1.89	1.542	1.276

CCCCOC(=O)c1ccccc1 + CC#N
viscosity [mPa·s], 101.33 kPa
Conditions	x1 = 0.125	x1 = 0.244	x1 = 0.355	x1 = 0.463	x1 = 0.563	x1 = 0.654	x1 = 0.75	x1 = 0.83	x1 = 0.919
293.15 K	0.446	0.486	0.533	0.629	0.762	0.956	1.173	1.57	2.131
303.15 K	0.402	0.434	0.472	0.551	0.655	0.808	0.979	1.27	1.69
313.15 K	0.364	0.392	0.424	0.483	0.567	0.696	0.825	1.056	1.368
323.15 K	0.313	0.352	0.382	0.43	0.461	0.603	0.667	0.9	1.119
